In the NIST ThermoML archive (doi:10.1016/j.jct.2017.03.019):
Numbers after ± are expanded uncertainties.

Legend:
[1] = 298.2 K; 101.33 kPa; Liquid; Vibrating tube method
[2] = refractive index (Na D-line) (dimensionless); settings: 298.2 K; 101.33 kPa; Liquid; Standard Abbe refractometry
[3] = wn = mass fraction of the nth substance listed; settings: 298.2 K, 100 kPa, Liquid, Vibrating tube method
[4] = refractive index (Na D-line) (dimensionless); wn = mass fraction of the nth substance listed; settings: 298.2 K, 100 kPa, Liquid, Standard Abbe refractometry

CCC(C)O (stereo not given) [butan-2-ol]
mass density [1]: 802.49 ± 0.95 kg/m3
refractive index [2]: 1.3952 ± 0.0016

CCCC(C)O (stereo not given) [pentan-2-ol] + O
mass density ([3]; w2 = 0.1177): 827.45 ± 3.5 kg/m3
mass density ([3]; w2 = 0.9477): 989.77 ± 3.8 kg/m3
refractive index ([4]; w2 = 0.1177): 1.3992 ± 0.0036
refractive index ([4]; w2 = 0.9477): 1.3377 ± 0.0036

CCC(C)O (stereo not given) [butan-2-ol] + O
mass density ([3]; w2 = 0.3523): 874.34 ± 3.6 kg/m3
mass density ([3]; w2 = 0.8131): 968.42 ± 3.7 kg/m3
refractive index ([4]; w2 = 0.3523): 1.3812 ± 0.0036
refractive index ([4]; w2 = 0.8131): 1.3513 ± 0.0036

O [water]
mass density [1]: 997.17 ± 1.9 kg/m3
refractive index [2]: 1.3325 ± 0.0032

CCCCO [butan-1-ol]
mass density [1]: 805.81 ± 1.9 kg/m3
refractive index [2]: 1.3973 ± 0.0032

CCCC(C)O (stereo not given) [pentan-2-ol]
mass density [1]: 805.37 ± 1.9 kg/m3
refractive index [2]: 1.4044 ± 0.0032

CCCCO [butan-1-ol] + O
mass density ([3]; w2 = 0.2058): 844.74 ± 3.5 kg/m3
mass density ([3]; w2 = 0.9265): 986.16 ± 3.8 kg/m3
refractive index ([4]; w2 = 0.2058): 1.3885 ± 0.0036
refractive index ([4]; w2 = 0.9265): 1.3402 ± 0.0036
